ChEMBL document CHEMBL4152365, “Discovery of DS-6930, a potent selective PPARγ modulator. Part I: Lead identification” (Bioorg Med Chem, 2018)

Experiments:
[1] = Metabolic stability in rat liver microsomes after 0.5 hrs; assay type: ADME, microsome; details: read-out: Stability
[2] = Plasma concentration in hyperglycemic KK/Ta mouse at 30 mg/kg/day, po administered through diet for 3 days measured on day 3 post last dose; assay type: ADME, organism-based
[3] = test system: Mus musculus; test: Toxicity in hyperglycemic KK/Ta mouse assessed as body weight gain at 30 mg/kg/day, po administered through diet for 3 days relative to control; assay type: organism-based; details: in vivo, 72 h
[4] = test system: Mus musculus; test: Glucose-lowering effect in hyperglycemic KK/Ta mouse assessed as reduction in plasma glucose level at 30 mg/kg/day, po administered through diet for 3 days relative to control; assay type: functional; parameters: scale not given: the % may be the effect or the level left
[5] = target: T1, Peroxisome proliferator-activated receptor alpha (Homo sapiens, UniProt Q07869); test: Agonist activity at recombinant human GAL4-DBD fused PPARalpha LBD expressed in COS7 cells after 24 hrs by luciferase reporter gene assay; assay type: cell-based
T1 sequence (Q07869 whole entry): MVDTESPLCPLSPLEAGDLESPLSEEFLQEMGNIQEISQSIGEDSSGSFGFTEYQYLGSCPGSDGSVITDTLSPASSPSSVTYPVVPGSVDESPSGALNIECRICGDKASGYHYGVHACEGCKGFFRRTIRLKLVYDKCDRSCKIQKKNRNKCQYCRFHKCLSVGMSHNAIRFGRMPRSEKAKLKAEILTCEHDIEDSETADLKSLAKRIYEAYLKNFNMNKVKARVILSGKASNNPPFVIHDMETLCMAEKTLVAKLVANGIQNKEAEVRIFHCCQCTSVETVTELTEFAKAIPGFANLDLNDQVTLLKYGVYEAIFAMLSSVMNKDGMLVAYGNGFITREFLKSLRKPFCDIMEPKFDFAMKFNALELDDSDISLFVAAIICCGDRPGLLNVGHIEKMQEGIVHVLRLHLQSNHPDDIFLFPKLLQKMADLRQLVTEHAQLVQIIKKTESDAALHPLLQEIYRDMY

[6] = test system: Rattus norvegicus; test: Glucose-lowering effect in Zucker diabetic fatty rat assessed as reduction in plasma glucose level at 3 mg/kg, po administered once daily for 14 days measured on day 14 post last dose relative to control; assay type: functional; parameters: scale not given: the % may be the effect or the level left
[7] = test system: Rattus norvegicus; test: Toxicity in Zucker diabetic fatty rat assessed as body weight gain at 3 mg/kg, po administered once daily for 14 days relative to control; assay type: organism-based; details: in vivo, 336 h
[8] = test system: Rattus norvegicus; test: Glucose-lowering effect in Zucker diabetic fatty rat assessed as reduction in plasma glucose level at 0.3 mg/kg, po administered once daily for 14 days measured on day 14 post last dose relative to control; assay type: functional; parameters: scale not given: the % may be the effect or the level left
[9] = test system: Rattus norvegicus; test: Glucose-lowering effect in Zucker diabetic fatty rat assessed as reduction in plasma glucose level at 30 mg/kg, po administered once daily for 14 days measured on day 14 post last dose relative to control; assay type: functional; parameters: scale not given: the % may be the effect or the level left
[10] = test system: Rattus norvegicus; test: Toxicity in Zucker diabetic fatty rat assessed as body weight gain at 0.3 mg/kg, po administered once daily for 14 days relative to control; assay type: organism-based; details: in vivo, 336 h
[11] = test system: Rattus norvegicus; test: Toxicity in Zucker diabetic fatty rat assessed as body weight gain at 30 mg/kg, po administered once daily for 14 days relative to control; assay type: organism-based; details: in vivo, 336 h
[12] = Cmax in Zucker diabetic fatty rat at 3 mg/kg, po dosed once daily for 14 days and followed by additional administeration on day 15; assay type: ADME, organism-based; parameters: dose 3 mg/kg, route oral; details: in vivo
[13] = Cmax in Zucker diabetic fatty rat at 0.3 mg/kg, po dosed once daily for 14 days and followed by additional administeration on day 15; assay type: ADME, organism-based; parameters: dose 0.3 mg/kg, route oral; details: in vivo
[14] = Cmax in Zucker diabetic fatty rat at 30 mg/kg, po dosed once daily for 14 days and followed by additional administeration on day 15; assay type: ADME, organism-based; parameters: dose 30 mg/kg, route oral; details: in vivo
[15] = Tmax in Zucker diabetic fatty rat at 3 mg/kg, po dosed once daily for 14 days and followed by additional administeration on day 15; assay type: ADME, organism-based; details: in vivo
[16] = Tmax in Zucker diabetic fatty rat at 0.3 mg/kg, po dosed once daily for 14 days and followed by additional administeration on day 15; assay type: ADME, organism-based; details: in vivo
[17] = Tmax in Zucker diabetic fatty rat at 30 mg/kg, po dosed once daily for 14 days and followed by additional administeration on day 15; assay type: ADME, organism-based; details: in vivo
[18] = AUC (0 to 24 hrs) in Zucker diabetic fatty rat at 3 mg/kg, po dosed once daily for 14 days and followed by additional administeration on day 15; assay type: ADME, organism-based; parameters: dose 3 mg/kg, time < 24 hr, route oral; details: in vivo
[19] = AUC (0 to 24 hrs) in Zucker diabetic fatty rat at 0.3 mg/kg, po dosed once daily for 14 days and followed by additional administeration on day 15; assay type: ADME, organism-based; parameters: time < 24 hr, dose 0.3 mg/kg, route oral; details: in vivo
[20] = AUC (0 to 24 hrs) in Zucker diabetic fatty rat at 30 mg/kg, po dosed once daily for 14 days and followed by additional administeration on day 15; assay type: ADME, organism-based; parameters: time < 24 hr, dose 30 mg/kg, route oral; details: in vivo
[21] = test system: Rattus norvegicus; test: Toxicity in Zucker diabetic fatty rat assessed as body weight gain administered orally once daily for 14 day; assay type: organism-based; details: in vivo, po, 336 h
[22] = Cmax in Wistar-Imamichi rat at 30 mg/kg, po via gavage once daily for 28 days measured on day 28 post dose; assay type: ADME, organism-based; parameters: dose 30 mg/kg, route oral; details: in vivo
[23] = Tmax in Wistar-Imamichi rat at 30 mg/kg, po via gavage once daily for 28 days measured on day 28 post dose; assay type: ADME, organism-based; details: in vivo
[24] = AUC (0 to 24 hrs) in Wistar-Imamichi rat at 30 mg/kg, po via gavage once daily for 28 days measured on day 28 post dose; assay type: ADME, organism-based; parameters: time < 24 hr, dose 30 mg/kg, route oral; details: in vivo
[25] = Cmax in Wistar-Imamichi rat at 100 mg/kg, po via gavage once daily for 28 days measured on day 28 post dose; assay type: ADME, organism-based; parameters: dose 100 mg/kg, route oral; details: in vivo
[26] = Tmax in Wistar-Imamichi rat at 100 mg/kg, po via gavage once daily for 28 days measured on day 28 post dose; assay type: ADME, organism-based; details: in vivo
[27] = AUC (0 to 24 hrs) in Wistar-Imamichi rat at 100 mg/kg, po via gavage once daily for 28 days measured on day 28 post dose; assay type: ADME, organism-based; parameters: time < 24 hr, dose 100 mg/kg, route oral; details: in vivo
[28] = Cmax in Wistar-Imamichi rat at 300 mg/kg, po via gavage once daily for 28 days measured on day 28 post dose; assay type: ADME, organism-based; parameters: dose 300 mg/kg, route oral; details: in vivo
[29] = Tmax in Wistar-Imamichi rat at 300 mg/kg, po via gavage once daily for 28 days measured on day 28 post dose; assay type: ADME, organism-based; details: in vivo
[30] = AUC (0 to 24 hrs) in Wistar-Imamichi rat at 300 mg/kg, po via gavage once daily for 28 days measured on day 28 post dose; assay type: ADME, organism-based; parameters: dose 300 mg/kg, time < 24 hr, route oral; details: in vivo
[31] = test system: Rattus norvegicus; test: Toxicity in Wistar-Imamichi rat assessed as death at 30 to 300 mg/kg, po administered via gavage once daily for 28 days; assay type: organism-based; details: in vivo, 672 h
[32] = test system: Rattus norvegicus; test: Toxicity in Wistar-Imamichi rat assessed as clinical abnormality at 30 to 300 mg/kg, po administered via gavage once daily for 28 days; assay type: organism-based; details: in vivo, 672 h
[33] = test system: Rattus norvegicus; test: Toxicity in Wistar-Imamichi rat assessed as reduction in RBC count at 30 to 300 mg/kg, po administered via gavage once daily for 28 days; assay type: organism-based; details: in vivo, 672 h
[34] = test system: Rattus norvegicus; test: Toxicity in Wistar-Imamichi rat assessed as effect on hematocrit at 30 to 300 mg/kg, po administered via gavage once daily for 28 days; assay type: organism-based; details: in vivo, 672 h
[35] = test system: Rattus norvegicus; test: Toxicity in Wistar-Imamichi rat assessed as effect on hemodilution by measuring increase in heart weight at 300 mg/kg, po administered via gavage once daily for 28 days; assay type: organism-based; details: in vivo, 672 h
[36] = test system: Rattus norvegicus; test: Toxicity in Wistar-Imamichi rat assessed as elevation in ALT activity at 30 to 300 mg/kg, po administered via gavage once daily for 28 days; assay type: organism-based; details: in vivo, 672 h
[37] = test system: Rattus norvegicus; test: Toxicity in Wistar-Imamichi rat assessed as elevation in AST activity at 30 to 300 mg/kg, po administered via gavage once daily for 28 days; assay type: organism-based; details: in vivo, 672 h
[38] = test system: Rattus norvegicus; test: Toxicity in Wistar-Imamichi rat assessed as histopathological changes in liver at 30 to 300 mg/kg, po administered via gavage once daily for 28 days; assay type: organism-based; details: in vivo, 672 h
[39] = Cmax in Wistar-Imamichi rat at 0.3 mg/kg, po via gavage once daily for 28 days measured on day 28 post dose; assay type: ADME, organism-based; parameters: dose 0.3 mg/kg, route oral; details: in vivo
[40] = AUC (0 to 24 hrs) in Wistar-Imamichi rat at 0.3 mg/kg, po via gavage once daily for 28 days measured on day 28 post dose; assay type: ADME, organism-based; parameters: time < 24 hr, dose 0.3 mg/kg, route oral; details: in vivo

Structure (SMILES): Cn1c(COc2cccc(C(=O)O)c2)nc2ccc(Oc3ccc(Cl)c(F)c3)cc21
- remaining at 0.5 h [1]: 94%
- concentration at 72 h [2]: 570 ng/mL
- Activity [3]: 4.4%
- Activity [4]: 43.2%
- EC50 [5]: > 10 µM
- Activity [6]: 43.8%
- Activity [7]: 12.4%
- Activity [8]: 16.6%
- Activity [9]: 74.9%
- Activity [10]: 2.3%
- Activity [11]: 16.7%
- Cmax [12]: 920 ng/mL
- Cmax [13]: 180 ng/mL
- Cmax [14]: 8080 ng/mL
- Tmax [15]: 2.4 h
- Tmax [16]: 6.8 h
- Tmax [17]: 2 h
- AUC at 24 h [18]: 6750 ng·h/mL
- AUC at 24 h [19]: 1740 ng·h/mL
- AUC at 24 h [20]: 55800 ng·h/mL
- Activity [21]: Dose-dependent effect
- Cmax [22]: 9100 ng/mL
- Tmax [23]: 4 h
- AUC at 24 h [24]: 93700 ng·h/mL
- Cmax [25]: 14900 ng/mL
- Tmax [26]: 5 h
- AUC at 24 h [27]: 192000 ng·h/mL
- Cmax [28]: 22600 ng/mL
- Tmax [29]: 3 h
- AUC at 24 h [30]: 190000 ng·h/mL
- Activity [31]: Non-Toxic
- Activity [32]: Non-Toxic
- Activity [33]: Non-Toxic
- Activity [34]: Non-Toxic
- Activity [35]: 9.9%
- Activity [36]: Toxic
- Activity [37]: Toxic
- Activity [38]: Non-Toxic
- Cmax [39]: 180 ng/mL
- AUC at 24 h [40]: 1740 ng·h/mL
